Key:
HUVEC and HCMEC = assay: Differentiation of treated endothelial cells in osteogenic, chondrogenic or adipogenic culture medium; format: cell-based, human; settings: for alkaline phosphatase staining (osteoblasts) / alizarin red staining (matrix calcification) / gene expression of osteocalcin, osterix, COL2A1, SOX9, adiponectin, PPARγ2 (real-time quantitative PCR) / TIE2 expression in osteoblasts, chondrocytes and adipocytes derived from endothelial cells (immunoblotting): 48 hours treatment; for alkaline phosphatase staining (osteoblasts): then 7 days osteogenic medium; for alizarin red staining (matrix calcification): then 21 days osteogenic medium; for gene expression of osteocalcin, osterix, COL2A1, SOX9, adiponectin, PPARγ2 (real-time quantitative PCR): then osteogenic 7 days, chondrogenic 14 days or adipogenic 7 days, compared to vehicle; for differentiation by alkaline phosphatase, alizarin red, alcian blue or oil red O staining / protein expression of osterix, SOX9 and PPARγ2 (immunoblotting) / expression of endothelial markers TIE2, vWF, VE-cadherin, TIE1 in osteoblasts, chondrocytes, adipocytes derived from endothelial cells (immunoblot): 48 h treatment; for differentiation by alkaline phosphatase, alizarin red, alcian blue or oil red O staining: then differentiation medium 7-21 d; for protein expression of osterix, SOX9 and PPARγ2 (immunoblotting): then osteogenic 7 d, chondrogenic 14 d or adipogenic 7 d; for TIE2 expression in osteoblasts, chondrocytes and adipocytes derived from endothelial cells (immunoblotting) / expression of endothelial markers TIE2, vWF, VE-cadherin, TIE1 in osteoblasts, chondrocytes, adipocytes derived from endothelial cells (immunoblot): HCMEC, then differentiation medium
Description: RNA extractions were performed using the RNeasy Mini kit (Qiagen) and protocol. RNA samples were submitted to a core facility (Biopolymers Facility, Department of Genetics, Harvard Medical School) where real-time PCR experiments were conducted using the Syber Green PCR system (ABI) on an ABI 7500 cycler, with 40 cycles per sample. Cycling temperatures were as follows: denaturing 95° C.; annealing 60° C.; extension, 70° C. The following primers (Integrated DNA Technologies) were used: […]
Cells were grown in StemPro osteogenic, chondrogenic, or adipogenic culture medium (Invitrogen). Alkaline phosphatase staining was performed using the alkaline phosphatase kit and protocol (Sigma-Aldrich) on cultures grown in osteogenic medium for 7 days to detect osteoblasts. Alizarin Red (Sigma-Aldrich) staining was performed for 30 minutes on cultures grown in osteogenic medium for 21 days to detect matrix calcification. Alcian Blue (Sigma) staining was used to stain chondrocyte proteoglycans for 5 minutes in cultures grown in chondrogenic medium for 14 days. Oil Red O (Sigma-Aldrich) staining was performed for 15 minutes on cultures grown in adipogenic medium for 7 days.
Cells were grown in StemPro osteogenic, chondrogenic, or adipogenic culture medium (Invitrogen). Alkaline phosphatase staining was performed using the alkaline phosphatase kit and protocol (Sigma-Aldrich) on cultures grown in osteogenic medium for 7 d to detect osteoblasts. Alizarin Red (Sigma-Aldrich) staining was performed for 30 min on cultures grown in osteogenic medium for 21 d to detect matrix calcification. Alcian Blue (Sigma) staining was used to stain chondrocyte proteoglycans for 5 minutes in cultures grown in chondrogenic medium for 14 d. Oil Red O (Sigma-Aldrich) staining was performed for 15 min on cultures grown in adipogenic medium for 7 d. For in vivo analysis, endothelial cells were labeled with fluorescent quantum dots using the Qtracker 525 Cell Labeling Kit (Invitrogen). Cells were treated in culture to induce EndMT then absorbed into OPLA polylactic acid scaffolds (BD Biosciences). Scaffolds were surgically implanted subcutaneously into immunodeficient nude mice (Nu/Nu strain; Charles River Laboratories). Local injection of StemPro differentiation medium (described above) was performed in the area of the implants every 72 h for 6 weeks. Scaffolds were cryosectioned and stained with Alizarin Red, Alcian Blue, or Oil Red O as described above. All procedures were reviewed and approved by the Institutional Animal Care and Use Committee at Harvard Medical School.

ALK2 with ALK5 = target: T1, ALK2 with ALK5 (Homo sapiens, UniProt Q04771); assay: Interaction of ALK2 with ALK5: immunoprecipitation of ALK2, immunoblotting for ALK5; format: cell-based; settings: 10 ng ml−1, 15 min
T1 construct: endogenous in cells; host or cells: HUVEC
T1 sequence (Q04771 21-509): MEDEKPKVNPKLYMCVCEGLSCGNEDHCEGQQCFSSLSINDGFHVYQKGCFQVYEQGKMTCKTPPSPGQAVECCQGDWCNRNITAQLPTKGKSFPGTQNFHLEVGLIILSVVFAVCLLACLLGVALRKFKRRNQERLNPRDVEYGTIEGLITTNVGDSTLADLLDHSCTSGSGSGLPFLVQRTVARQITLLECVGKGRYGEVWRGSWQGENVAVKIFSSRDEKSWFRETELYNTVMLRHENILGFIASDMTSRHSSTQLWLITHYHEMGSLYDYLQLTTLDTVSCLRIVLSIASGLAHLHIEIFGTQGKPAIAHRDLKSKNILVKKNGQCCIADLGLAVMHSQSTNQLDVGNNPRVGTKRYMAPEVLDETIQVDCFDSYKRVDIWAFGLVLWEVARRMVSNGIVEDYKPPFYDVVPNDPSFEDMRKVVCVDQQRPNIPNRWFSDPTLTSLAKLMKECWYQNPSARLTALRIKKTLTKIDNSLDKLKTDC
Description: Human umbilical vein endothelial cells (HUVEC) and human cutaneous microvascular endothelial cells (HCMEC) isolated as previously described (35). Cells were tested for purity and found to express no markers for lymphatic endothelial cells or stromal cells (pericytes, smooth muscle cells, etc.) (36). This was reconfirmed by flow cytometry analysis (data not shown). Clonal populations were isolated with PYREX 8×8 mm cloning cylinders (Corning) and shown to respond in a manner identical to that of the cultures used for our experiments (FIG. 25B-D). Cells were grown in culture using EGM-2 medium (Cambrex), containing 10% FBS and 1% Penicillin/Streptomycin, followed by human endothelial serum free medium (Gibco) 24 h prior to all experimental conditions. Bone marrow derived mesenchymal stem cells (ScienCell Research Laboratories) were grown in mesenchymal stem cell medium (ScienCell Research Laboratories). Bone marrow derived hematopoietic stem cells (Lonza) were grown in HPGM medium (Lonza). Human corneal fibroblasts, from a stock provided by Dr. Elizabeth Hay (Harvard Medical School), were grown in RPMI medium, containing 10% FBS and 1% Penicillin/Streptomycin. Primary human osteoblasts, chondrocytes, and adipocytes and their respective growth media were obtained from Cell Applications, Inc. […] Recombinant VEGF (R&D Systems) was added to cultures at a concentration of 25 ng ml^-1. Dorsomorphin (Sigma-Aldrich) was added to cultures at a concentration of 5 μM. All experiments for this study were performed at minimum in triplicate. Immunoassays were performed using the following antibodies at concentrations (and using protocols) recommended by the respective manufacturers: […] Stressgen), phospho-Smad2 (3101), Smad2 (3122), phospho-Smad5 (9516), Smad5 (9517; […] Santa Cruz Biotechnology), osterix (ab22552), adiponectin (ab22554), N-cadherin (ab76057), NG2 (ab83508), vWF (ab68545; Abcam); CD31 (IR610; Dako), […]; GenScript); α-SMA ([…]), β-actin (A1978; Sigma-Aldrich). […] Images were acquired using a Nikon 80i fluorescence microscope.

BMP4: Recombinant BMP4 protein (R&D Systems), ALK2 activating ligand, used at 10 ng/mL
alkaline phosphatase staining (osteoblasts) (HUVEC and HCMEC): strong positive staining | alizarin red staining (matrix calcification) (HUVEC and HCMEC): high levels of matrix calcification | gene expression of osteocalcin, osterix, COL2A1, SOX9, adiponectin, PPARγ2 (real-time quantitative PCR) (HUVEC and HCMEC): dramatic increases | differentiation by alkaline phosphatase, alizarin red, alcian blue or oil red O staining (HUVEC and HCMEC): differentiated into other cell types | protein expression of osterix, SOX9 and PPARγ2 (immunoblotting) (HUVEC and HCMEC): increases in protein expression | TIE2 expression in osteoblasts, chondrocytes and adipocytes derived from endothelial cells (immunoblotting) (HUVEC and HCMEC): strong expression of TIE2 | expression of endothelial markers TIE2, vWF, VE-cadherin, TIE1 in osteoblasts, chondrocytes, adipocytes derived from endothelial cells (immunoblot) (HUVEC and HCMEC): showed expression of these endothelial markers | ALK5 in ALK2 immunoprecipitates (ALK2 with ALK5): presence of ALK5

TGF-β2: Recombinant TGF-β2 protein (R&D Systems), ALK2 activating ligand, used at 10 ng/mL
alkaline phosphatase staining (osteoblasts) (HUVEC and HCMEC): strong positive staining | alizarin red staining (matrix calcification) (HUVEC and HCMEC): high levels of matrix calcification | gene expression of osteocalcin, osterix, COL2A1, SOX9, adiponectin, PPARγ2 (real-time quantitative PCR) (HUVEC and HCMEC): dramatic increases | differentiation by alkaline phosphatase, alizarin red, alcian blue or oil red O staining (HUVEC and HCMEC): differentiated into other cell types | protein expression of osterix, SOX9 and PPARγ2 (immunoblotting) (HUVEC and HCMEC): increases in protein expression | TIE2 expression in osteoblasts, chondrocytes and adipocytes derived from endothelial cells (immunoblotting) (HUVEC and HCMEC): strong expression of TIE2 | expression of endothelial markers TIE2, vWF, VE-cadherin, TIE1 in osteoblasts, chondrocytes, adipocytes derived from endothelial cells (immunoblot) (HUVEC and HCMEC): showed expression of these endothelial markers | staining of clonal populations for osteoblasts, chondrocytes or adipocytes (AP, AR, AB, OR) (HUVEC and HCMEC; three clonal populations of HUVEC and HCMEC, differentiation medium): stained positive | ALK5 in ALK2 immunoprecipitates (ALK2 with ALK5): presence of ALK5

Reference: patent US20130078718A1, “CONVERSION OF VASCULAR ENDOTHELIAL CELLS INTO MULTIPOTENT STEM-LIKE CELLS” (PRESIDENT AND FELLOWS OF HARVARD COLLEGE, priority 2010, published 2013)
